# Experimental data as given in patent publication US12011427B2, “Methods of treating cancer” (Inspirna, Inc., priority 2019, dated 2024).
# Where two headings read alike, the source gives them in different places.
# What was measured:
# [1] = β-GPA plasma pharmacokinetics after RGX-202 BID dosing; format: in vivo, human; details: for AUC(0-t): read-out: Average AUC0-24
# Method: Method: Subjects were administered RGX-202 (a highly compressible salt form of β-GPA) in a regimen of 600 mg BID, 1,200 mg BID, 2,400 mg BID, or 3,600 mg BID, and plasma samples were taken from the subjects and tested using the protocol described below for levels of β-GPA over the course of 24 hours after administration.
# The analyte, β-GPA, and internal standard (IS), [13C415N3]-β-GPA, are extracted from 50.0 μL of human plasma by a protein precipitation extraction procedure. The extraction procedure begins with the addition of 50.0 μL of internal standard working solution to all wells except double blanks, which receive 50.0 μL of water. Next the plate is covered and vortexed. Then 500 μL of acetonitrile/methanol (50/50, v/v) is added to all wells. Next the plate is covered, vortexed and centrifuged. Using a Tomtec Quadra 4, 200 μL of the supernatant is transferred into a new plate. Then 300 μL acetonitrile/methanol (50/50, v/v) is added to all wells. The plate is then sealed and vortexed. The extracts are chromatographed under reverse phase conditions on a Luna HPLC column 50×2.0 mm, 3 μm column using a gradient system with 10 mM ammonium acetate in water and acetonitrile. The compounds are detected and quantified by tandem mass spectrometry in positive ion mode on a MDS Sciex API 4000 equipped with a Turbo Ionspray® interface.
# Solubility of β-GPA = format: physicochemical
# [2] = tested on: liver metastasis in gastrointestinal cancers; details: particularly liver metastasis in gastrointestinal cancers; WO2014/071067; cited from earlier work
# [3] = tested on: animal models of noninsulin-dependent diabetes; details: animal models of noninsulin-dependent diabetes (rats, monkeys, hamsters); cited from earlier work
# [4] = tested on: advanced gastrointestinal tumors; experiment: RGX-202 monotherapy or combination with FOLFIRI in subjects with advanced gastrointestinal tumors; format: in vivo, human
# Method: Method: Subjects with advanced gastrointestinal tumors (e.g., locally advanced and unresectable, or metastatic) were administered multiple doses of orally administered RGX-202 as a monotherapy or in combination with irinotecan, folinic acid, and fluorouracil. In the monotherapy arm of the study, RGX-202 was administered orally twice or three times daily on days 1-28 of each 28-day cycle. The dose regimen was dependent on the cohort in which the patient was enrolled. In the combination arm of the study, RGX-202 was administered in the same way as described for the monotherapy arm in combination with FOLFIRI. FOLFIRI was administered by intravenous administration of irinotecan (180 mg/m^2) over 90 minutes concurrently with intravenous administration of folinic acid (400 mg/m^2) over 2 hours, followed by fluorouracil (5-FU) (400 mg/m^2) intravenous bolus and then 5-FU (2400 mg/m^2) intravenous infusion over 46 hours, on days 1 and 15 of each 28-day cycle. During the dose escalation, subjects were evaluated for pharmacokinetics (using the method as described in Example 1), pharmacodynamics, safety, and efficacy of the drug.
# [5] = 1200 mg BID, human plasma, 1,200 mg BID
# [6] = 2400 mg BID, human plasma, 2,400 mg BID
# [7] = 3600 mg BID, human plasma, 3,600 mg BID
structure (smiles),measurement,setting,value
"N=C(N)NCCC(=O)O [β-GPA, β-Guanidinopropionic acid]",Cmax,[1]; [5],4790 ng/mL
same,AUC(0-t),[1]; [5],45.2 µg·h/mL
same,Cmax,[1]; [6],26800 ng/mL
same,AUC(0-t),[1]; [6],165 µg·h/mL
same,Cmax,[1]; [7],47700 ng/mL
same,AUC(0-t),[1]; [7],241 µg·h/mL
same,AUC Dose Acc. Ratio,"[1]; human plasma, 600 mg BID",1.0
same,Cmax,"[1]; human plasma, 600 mg BID",1400 ng/mL
same,Cmax Dose Acc. Ratio,"[1]; human plasma, 600 mg BID",1.0
same,Dose Normalized Average Cmax,"[1]; human plasma, 600 mg BID",1.2 ng/mL
same,Dose-Normalized Average AUC0-24,"[1]; human plasma, 600 mg BID",13.1 ng·h/mL
same,AUC(0-t),"[1]; human plasma, 600 mg BID",15.7 µg·h/mL
same,AUC Dose Acc. Ratio,"[1]; human plasma, 1,200 mg BID",1.4
same,Cmax Dose Acc. Ratio,"[1]; human plasma, 1,200 mg BID",1.7
same,Dose Normalized Average Cmax,"[1]; human plasma, 1,200 mg BID",2.0 ng/mL
same,Dose-Normalized Average AUC0-24,"[1]; human plasma, 1,200 mg BID",18.8 ng·h/mL
same,AUC Dose Acc. Ratio,"[1]; human plasma, 2,400 mg BID",2.7
same,Cmax Dose Acc. Ratio,"[1]; human plasma, 2,400 mg BID",4.8
same,Dose Normalized Average Cmax,"[1]; human plasma, 2,400 mg BID",5.6 ng/mL
same,Dose-Normalized Average AUC0-24,"[1]; human plasma, 2,400 mg BID",34.3 ng·h/mL
same,AUC Dose Acc. Ratio,"[1]; human plasma, 3,600 mg BID",2.6
same,Cmax Dose Acc. Ratio,"[1]; human plasma, 3,600 mg BID",5.7
same,Dose Normalized Average Cmax,"[1]; human plasma, 3,600 mg BID",6.6 ng/mL
same,Dose-Normalized Average AUC0-24,"[1]; human plasma, 3,600 mg BID",33.5 ng·h/mL
same,solubility in organic solvents,Solubility of β-GPA; organic solvents,low solubility
same,solubility,Solubility of β-GPA; water,> 50 mg/mL
same,suppression of metastasis,[2],effective
same,effect on hyperglycemia,[3],ameliorate hyperglycemia
[H]/N=C(\N)NCCC(=O)O [RGX-202],subjects exhibiting a partial response,"[4]; of the 10 subjects who received the monotherapy, at 3,600 mg BID after 40 weeks",one
same,subjects exhibiting stable disease,"[4]; of the 10 subjects who received the monotherapy, at doses of 1,200 mg BID, 2,400 mg BID and 3,600 mg BID",three
same,objective activity,[4]; subjects with advanced gastrointestinal tumors,activities were observed
same,dose limiting toxicity,"[4]; subjects with advanced gastrointestinal tumors, oral dose escalation, monotherapy or combination",did not exhibit dose limiting toxicity
